This passage reports Activity, inhibition and IC50 results from ChEMBL document CHEMBL1153785, “Antimalarial activity of azafluorenone alkaloids from the Australian tree Mitrephora diversifolia” (J Nat Prod, 2009).

One may read the IC50 as the concentration needed to halve the response being measured. Read a high IC50 as a need for much substance.

Data set [1] relates to Plasmodium falciparum. Kind of data set: Antimalarial activity against chloroquine-sensitive Plasmodium falciparum 3D7 at 120 uM after 72 hrs by DAPI staining method. It is filed as functional.
In a further data set the test system is HEK293. Kind of data set: Cytotoxicity against human HEK293 cells up to 120 uM after 72 hrs by Alamar blue assay. It is filed as cell-based. The following applies: hek293, 72 h.
Data set [2] has as its system Plasmodium falciparum. Kind of data set: Antimalarial activity against chloroquine-resistant Plasmodium falciparum Dd2 at 120 uM after 72 hrs by DAPI staining method.
Data set [3] can be described thus: Cytotoxicity against human HEK293 cells at 120 uM after 72 hrs by Alamar blue assay. To be noted: read-out: GI. Type of data set: cell-based. (Resazurin is reduced to fluorescent resorufin, in cell work by metabolically active cells.)
Data set [4] deals with Plasmodium falciparum. Kind of data set: Antimalarial activity against chloroquine-sensitive Plasmodium falciparum 3D7 after 72 hrs by DAPI staining method. The following applies: 3D7, 72 h. Type of data set: functional, organism-based.
Data set [5] relates to Plasmodium falciparum. Kind of data set: Antimalarial activity against chloroquine-resistant Plasmodium falciparum Dd2 after 72 hrs by DAPI staining method. To be noted: Dd2, 72 h.

Turning to `COc1cc(O)c2c(c1O)-c1nccc(C)c1C2=O`, the values for the Activity in the data set with Plasmodium falciparum [1], in the data set on HEK293 and in the data set with Plasmodium falciparum [2] were 87%, “Non-toxic” and 80%, respectively.
As for `COc1ccc2c(c1O)-c1nccc(C)c1C2=O`, in data set [3], the inhibition at 72 h, 120 µM was found to be 96%. For the same compound, the IC50 was found to be 9.9 µM with Plasmodium falciparum [4] and 11.4 µM with Plasmodium falciparum [5].
